Measurements reported in patent US9499519B2, “Fused pyrimidine compounds and use thereof” (Medivation Technologies, Inc., priority 2012, dated 2016).
Read-outs that look alike come from different tables or passages of the source.

Assays:
[1] = test system: Akt phosphorylation induced by IGF-1R; experiment: Western blot analysis of Akt phosphorylation induced by IGF-1 in HT-29 cells; assay type: cell-based, Human; settings: for Levels of phosphorylated AKT in treated cells (pAKT/actin): HT-29 cells, IGF-1; for p-AKT relative to levels with 0.1 nM compound: Table B2 lower part; for Normalized phosphorylated AKT (relative to actin) levels relative to 0.1 nM compound treatment: Table B2 upper part
How it was run: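 Phospho-Akt assessed by western blot in serum-depleted (24 h) human colon carcinoma HT-29 cells. Compounds applied for 2 h at 0.1–100 (0.1, 1, 10, 100); vehicle DMSO and 10 ng/mL IGF-1 served as controls. Protein in cleared lysates measured by BCA assay.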

IGF-1R = biological target: T1, IGF-1R (Homo sapiens, UniProt P08069); experiment: In vitro IGF-1R enzymatic assay (ADP-Glo kinase assay); assay type: biochemical; settings: for inhibition at 0.03 µM: activated IGF-1R, 30 nM
T1 construct: purchased Millipore 14-802
T1 sequence (P08069 31-1367): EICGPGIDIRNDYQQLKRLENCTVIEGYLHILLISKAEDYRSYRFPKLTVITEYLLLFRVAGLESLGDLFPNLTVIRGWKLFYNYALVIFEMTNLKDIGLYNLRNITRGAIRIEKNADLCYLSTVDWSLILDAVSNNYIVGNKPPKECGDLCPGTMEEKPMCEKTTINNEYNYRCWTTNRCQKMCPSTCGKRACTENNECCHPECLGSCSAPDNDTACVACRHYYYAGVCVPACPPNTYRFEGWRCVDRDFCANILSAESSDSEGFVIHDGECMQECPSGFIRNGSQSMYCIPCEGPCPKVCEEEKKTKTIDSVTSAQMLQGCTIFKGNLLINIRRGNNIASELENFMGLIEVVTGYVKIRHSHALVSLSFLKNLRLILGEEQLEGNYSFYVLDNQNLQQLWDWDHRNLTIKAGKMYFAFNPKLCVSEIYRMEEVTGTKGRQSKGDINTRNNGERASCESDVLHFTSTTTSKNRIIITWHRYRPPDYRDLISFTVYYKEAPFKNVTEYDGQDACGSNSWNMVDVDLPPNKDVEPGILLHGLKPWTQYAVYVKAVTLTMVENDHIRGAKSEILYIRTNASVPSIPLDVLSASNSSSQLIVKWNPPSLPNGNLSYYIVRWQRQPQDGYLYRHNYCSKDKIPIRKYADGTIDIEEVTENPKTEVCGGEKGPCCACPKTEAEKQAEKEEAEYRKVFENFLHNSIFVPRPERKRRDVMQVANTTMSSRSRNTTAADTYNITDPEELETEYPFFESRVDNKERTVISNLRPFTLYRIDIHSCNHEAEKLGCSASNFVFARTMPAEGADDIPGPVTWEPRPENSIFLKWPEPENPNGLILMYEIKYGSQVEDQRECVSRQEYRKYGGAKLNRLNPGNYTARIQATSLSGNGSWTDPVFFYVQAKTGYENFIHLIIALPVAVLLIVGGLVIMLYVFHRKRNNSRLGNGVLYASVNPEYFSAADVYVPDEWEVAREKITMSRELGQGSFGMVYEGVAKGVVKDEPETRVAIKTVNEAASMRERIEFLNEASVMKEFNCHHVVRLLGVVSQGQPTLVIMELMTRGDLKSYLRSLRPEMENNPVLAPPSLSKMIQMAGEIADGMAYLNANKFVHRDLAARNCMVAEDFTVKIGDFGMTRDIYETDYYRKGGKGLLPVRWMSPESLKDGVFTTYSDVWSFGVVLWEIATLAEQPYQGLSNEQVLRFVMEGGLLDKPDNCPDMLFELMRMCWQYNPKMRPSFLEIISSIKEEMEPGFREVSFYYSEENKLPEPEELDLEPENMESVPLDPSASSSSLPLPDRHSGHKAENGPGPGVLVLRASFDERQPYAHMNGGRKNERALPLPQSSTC
Method: (§1) IC50 values of the compounds of the invention against IGF-1R and IR were measured in vitro using an ADP-Glo kinase assay Kit (Promega). […] Kinase reactions in both assays were conducted at 30° C. for 20 min with increasing concentrations of compounds of the invention.
Additional compounds of the invention were screened against activated IGF-1R.

IR = biological target: T2, IR (Homo sapiens, UniProt P06213); experiment: In vitro IR enzymatic assay (ADP-Glo kinase assay); assay type: biochemical; settings: for inhibition at 0.03 µM: activated IR, 30 nM
T2 construct: purchased Millipore 14-803
T2 sequence (P06213 28-1382): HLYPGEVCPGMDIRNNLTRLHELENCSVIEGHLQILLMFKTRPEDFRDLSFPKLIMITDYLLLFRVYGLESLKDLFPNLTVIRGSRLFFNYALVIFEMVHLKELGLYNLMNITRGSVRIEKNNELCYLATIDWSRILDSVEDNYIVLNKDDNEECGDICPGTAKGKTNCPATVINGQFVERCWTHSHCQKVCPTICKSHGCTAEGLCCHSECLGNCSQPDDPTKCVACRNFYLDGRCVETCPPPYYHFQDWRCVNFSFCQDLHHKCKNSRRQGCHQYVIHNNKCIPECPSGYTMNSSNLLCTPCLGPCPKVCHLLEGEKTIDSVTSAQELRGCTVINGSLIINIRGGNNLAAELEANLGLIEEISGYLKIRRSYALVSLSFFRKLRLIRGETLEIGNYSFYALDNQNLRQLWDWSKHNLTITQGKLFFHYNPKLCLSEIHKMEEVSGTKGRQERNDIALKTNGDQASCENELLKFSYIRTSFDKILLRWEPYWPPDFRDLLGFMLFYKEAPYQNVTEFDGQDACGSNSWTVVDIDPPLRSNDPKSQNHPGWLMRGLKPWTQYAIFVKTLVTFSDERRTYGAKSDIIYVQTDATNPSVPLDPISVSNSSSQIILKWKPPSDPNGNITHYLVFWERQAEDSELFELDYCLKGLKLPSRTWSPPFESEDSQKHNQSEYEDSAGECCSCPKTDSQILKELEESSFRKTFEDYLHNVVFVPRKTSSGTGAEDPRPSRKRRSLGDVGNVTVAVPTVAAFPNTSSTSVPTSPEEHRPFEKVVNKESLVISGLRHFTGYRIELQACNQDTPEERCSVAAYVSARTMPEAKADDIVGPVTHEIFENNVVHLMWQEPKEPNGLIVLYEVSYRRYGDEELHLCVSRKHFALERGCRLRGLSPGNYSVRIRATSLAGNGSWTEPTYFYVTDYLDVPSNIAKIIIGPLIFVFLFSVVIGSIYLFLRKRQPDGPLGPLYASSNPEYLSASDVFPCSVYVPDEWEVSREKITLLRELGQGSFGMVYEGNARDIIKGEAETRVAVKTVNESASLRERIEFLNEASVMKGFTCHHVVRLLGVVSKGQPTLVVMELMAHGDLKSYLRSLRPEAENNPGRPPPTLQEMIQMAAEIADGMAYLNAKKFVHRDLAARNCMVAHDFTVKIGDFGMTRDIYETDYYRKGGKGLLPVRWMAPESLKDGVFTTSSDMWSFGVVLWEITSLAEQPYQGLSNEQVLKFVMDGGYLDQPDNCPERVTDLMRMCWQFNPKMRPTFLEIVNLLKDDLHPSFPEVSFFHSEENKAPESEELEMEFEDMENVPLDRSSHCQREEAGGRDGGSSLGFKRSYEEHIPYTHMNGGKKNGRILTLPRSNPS
Method: as §1
Additional compounds of the invention were screened against activated IR.

HCT-116 = experiment: Cell Titer-Glo cell viability: HCT-116; assay type: cell-based; settings: Homo sapiens, Table B16, colon carcinoma, read-out: IC50 cell viability HCT116
Method: (§2) This assay quantitates the ATP present in order to determine the number of viable cells in culture. Briefly, the compounds were incubated with the cells for 72 h, followed by cell lysis. The resulting luminescent signal is proportional to the amount of ATP present and, therefore, directly proportional to the number of cells present in culture.
(§3) Compound nos. […] These cell lines are derived from human lung carcinoma, colon adenocarcinoma, colon adenocarcinoma, colon carcinoma, acute promyelocytic leukemia, colon adenocarcinoma, colon adenocarcinoma (from metastatic site lymph node), respectively.
(§4) Compounds 2b, 5, 6b and 10a were tested along with derivatives in viability assays as described above by Caliper LifeSciences Systems (Hanover, Md.), in A549, HCT-15, HCT-116, MCF-7, MDA-MB-231, OVCAR3, T47D, COLO205, HT-29, BT-20, HCC1187, HL-60, MDA-MB-175, SW-620, and UACC812 cells.

HT-29 = experiment: Cell Titer-Glo cell viability: HT-29; assay type: cell-based; settings: Homo sapiens, Table B16, colon adenocarcinoma
Method: as §2, §3, §4

[2] = test system: panel of cancer cell lines; experiment: Cell Titer-Glo cell viability, whole panels of cancer cell lines; assay type: cell-based; settings: all cell lines tested
Method: Compound nos. […] This panel of cell lines includes an ER− breast carcinoma, primary breast ductal carcinoma, prostate adenocarcinoma, mammary adenocarcinoma, mammary ductal carcinoma, mammary ductal carcinoma, ovary adenocarcinoma, ER+ breast carcinoma, ER− HER2+ mammary ductal carcinoma and an ER+ mammary ductal carcinoma, respectively.
as §2, §3

AMPK = experiment: RapidKinase192 panel: AMPK; assay type: biochemical
[3] = N1, read-out: % Inh @ 30 nM (N1)
[4] = N2, read-out: % Inh @ 30 nM (N2)
[5] = average, read-out: % Inh @ 30 nM Avg

## O=C(Nc1ccc(F)nc1)C1CCCN1c1nc2c(c(Nc3cc(C4CC4)[nH]n3)n1)CCC2 (single isomer, unassigned) [Compound 2b, 1-(4-(5-cyclopropyl-1H-pyrazol-3-ylamino)-6,7-dihydro-5H-cyclopenta[d]pyrimidin-2-yl)-N-(6-fluoropyridin-3-yl)pyrrolidine-2-carboxamide]
[1]; 0.1 nM compound
  Levels of phosphorylated AKT in treated cells (pAKT/actin): 1.57
[1]; 0.1 nM
  p-AKT relative to levels with 0.1 nM compound: 1.0
  Normalized phosphorylated AKT (relative to actin) levels relative to 0.1 nM compound treatment: 1.0
[1]; 1 nM compound
  Levels of phosphorylated AKT in treated cells (pAKT/actin): 0.80
[1]; 1 nM
  p-AKT relative to levels with 0.1 nM compound: 0.5
  Normalized phosphorylated AKT (relative to actin) levels relative to 0.1 nM compound treatment: 0.5
[1]; 10 nM compound
  Levels of phosphorylated AKT in treated cells (pAKT/actin): 0.22
[1]; 10 nM
  p-AKT relative to levels with 0.1 nM compound: 0.1
  Normalized phosphorylated AKT (relative to actin) levels relative to 0.1 nM compound treatment: 0.1
[1]; 100 nM compound
  Levels of phosphorylated AKT in treated cells (pAKT/actin): 0.03
[1]; 100 nM
  p-AKT relative to levels with 0.1 nM compound: 0.0
  Normalized phosphorylated AKT (relative to actin) levels relative to 0.1 nM compound treatment: 0.0
IGF-1R; IGF-1R, run N1
  Hill Slope N1: 1.195
IGF-1R; IGF-1R, run N2
  Hill Slope N2: 1.384
IGF-1R; [3]
  inhibition at 0.03 µM: 90%
IGF-1R; [4]
  inhibition at 0.03 µM: 88%
IGF-1R; [5]
  inhibition at 0.03 µM: 89%
IR; IR, run N1
  Hill Slope N1: 1.34
IR; IR, run N2
  Hill Slope N2: 1.13
IR; [3]
  inhibition at 0.03 µM: 92%
IR; [4]
  inhibition at 0.03 µM: 88%
IR; [5]
  inhibition at 0.03 µM: 90%
HCT-116
  IC50: 1000 nM
HT-29
  IC50: < 10 nM
[2]
  potency in cell viability assays compared with OSI-906 and BMS-754807: more potent effects
AMPK
  Average % Inh @ 10 nM: + (+=Low)
  Average % Inh @ 100 nM: ++ (++=Med)
  Average % Inh @ 1 μM: +++ (+++=High)
